Read-outs that look alike come from different tables or passages of the source.
Tested on: osteoclast differentiation
Experiment: Inhibitory effects on osteoclast differentiation (co-culture of bone marrow cells with osteoblast, TRAP staining)
Format: cell-based, mice
Settings: Mus musculus, Osteoclast, 168 h, read-out: % inhibitory activity on osteoclastogenesis
Description: The effect of benzamidine derivatives of the present invention on osteoclast proliferation and differentiation process was evaluated via co-culture with osteoblast.
Tibia and Femora were aseptically ectomized from male ddY mice of 6-8 weeks to harvest bone marrow cells by using a syringe (21G, Korea Green Cross).
The bone marrow cells were suspended in 5 mL α-MEM medium (Gibco BRL Co.) containing sodium bicarbonate (2.0 g/L), streptomycin (100 mg/L) and penicillin ([…]). The harvested cells were centrifuged at 600×g for 5 mins to collect the whole quantity. To remove the red blood cells within bone marrow cells, 3 mL of Tris HCl (0.83% NH4Cl, pH7.5) was added and well mixed. After centrifuging above cells, the numbers of bone marrow cells were counted and then, the bone marrow cells were immediately used for co-culture system with osteoblast.
The calvaria were aseptically ectomized from neonate ICR mice of 1˜2 days, washed with PBS solution and incubated with a mixture of enzyme solution (0.2% collagenase and 0.1% dispase) at 37° C. gentle shaker. This procedure was sequentially repeated (10, 10, 10, 20, 20 and 20 mins), and then the calvaria cells having the characteristics of osteoblast mostly released from III-VI digestion groups were collected and washed with the medium (serum-free α-MEM). The washed cells were cultivated in α-MEM medium containing 10% FBS for 2˜3 days. After subculturing, these cells were used for this experiment, and diluted to reach the concentration of 1×10^6 cell/mL for storage at −70° C.
Benzamidine derivatives of the present invention were dissolved in a sterile distilled water or ethanol to make desired concentrations following dilution. The final volume of specimen added to the medium was determined at the ratio of 1:1000.
Bone marrow cells prepared, in the above and osteoblast from calvaria were co-cultured for osteoclast differentiation. Both bone marrow cells (25,000 cells/cm^2) and osteoblast (10,000 cells/cm^2) were plated on a 96 well plate in α-MEM medium containing FBS with specimen, and then cultured with test materials for 7 days. Differentiation factors, such as dexamethasone (10^−7M) and vitamin D3 (10^−8M), were also continuously added to the medium from the first day of cultivation. The medium was changed with fresh media containing a mixture of specimens and differentiation factors every 2˜3 day.
TRAP was used as a marker to measure osteoclast in consideration of its characteristics showing a positive reaction to TRAP staining solution. TRAP staining solution was prepared in a manner that 5 mg of naphtol AS-MS phosphate (sigma N-4875), a substrate and 25 mg of coloring agent (Fast Red Violet LB salt) were dissolved in N,N-dimethylformamide (about 0.5 mL), 0.1N NaHCO3 buffer solution (50 mL) containing 50 mM tartaric acid was added, and the reaction mixture was stored at refrigerator prior to use.
After culturing the cells for 7 days, the medium was removed from the wells, the cells were once washed with PBS solution and fixed to PBS containing 10% formalin for 2˜5 mins. The cells were fixed again in a mixed solution of ethanol and acetone (1/1) for about 1 min, and dried off. The cells were further treated by TRAP staining solution for 15 mins and washed with PBS. The experimental results were measured by counting the number of osteoclasts with 3 or more nuclei showing TRAP-positive reaction under a microscopic examination. Each of tests was confirmed over three times for gaining more reliable data.
As shown in the following table 7, the inhibitory effect of each experimental group on the differentiation of osteoclast versus controls was expressed by inhibitory percentage value.

[1] = 1 m, co-culture of bone marrow cells and osteoblast, 7 days, TRAP-positive osteoclasts versus controls
[2] = 1 μm, co-culture of bone marrow cells and osteoblast, 7 days, TRAP-positive osteoclasts versus controls

SMILES	inhibition at 1 µM [1]	also measured
CCN(CC)c1nc(-c2ccc(OCCCCCOc3ccc(C(=N)NO)cc3)cc2)c(CC2CCCC2)s1 [Example 160, N-hydroxy-4-(5-[4-(5-cyclopentylmethyl-2-diethylamino-1,3-thiazol-4-yl)phenoxy]pentoxy)-benzamidine]	83.7%	
N=C(NO)c1ccc(OCCCCCOc2ccc(-c3nc(NC(=O)c4cccnc4)sc3CC3CCCC3)cc2)cc1 [Example 89, N-hydroxy-4-(5-[4-(5-cyclopentylmethyl-2-(3-pyridylcarbonyl)amino-1,3-thiazol-4-yl)phenoxy]pentoxy)-benzamidine]	81.2%	
CCc1nc(-c2ccc(OCCCCCOc3ccc(C(=N)NO)cc3)cc2)c(C(C)C)s1 [Example 24, N-hydroxy-4-(5-[4-(2-ethyl-5-isopropyl-1,3-thiazol-4-yl)phenoxy]pentoxy)-benzamidine]		inhibition at 1 µM [2]: 57.8%
CC(C)c1sc(NC(=N)N)nc1-c1ccc(OCCCCCOc2ccc(C(=N)NO)cc2)cc1 [Example 62, N-hydroxy-4-(5-[4-(2-guanidino-5-isopropyl-1,3-thiazol-4-yl)phenoxy]pentoxy)-benzamidine]		inhibition at 1 µM [2]: 19.1%
CCNc1nc(-c2ccc(OCCCCCOc3ccc(C(=N)NO)cc3)cc2)c(Cc2ccccc2)s1 [Example 108, N-hydroxy-4-(5-[4-(5-benzyl-2-ethylamino-1,3-thiazol-4-yl)phenoxy]pentoxy)-benzamidine]	25.4%	
CC(C)c1sc(-c2cccnc2)nc1-c1ccc(OCCCCCOc2ccc(C(=N)NO)cc2)cc1 [Example 27, N-hydroxy-4-(5-[4-(5-isopropyl-2-pyridin-3-yl-1,3-thiazol-4-yl)phenoxy]pentoxy)-benzamidine]		inhibition at 1 µM [2]: 56.5%
CCc1sc(C)nc1-c1ccc(OCCCCCOc2ccc(C(=N)NO)cc2)cc1 [Example 17, N-hydroxy-4-(5-[4-(5-ethyl-2-methyl-1,3-thiazol-4-yl)phenoxy]pentoxy)-benzamidine]		inhibition at 1 µM [2]: 59.1%
Cc1nc(-c2ccc(OCCCCCOc3ccc(C(=N)NO)cc3)cc2)c(CC(C)C)s1 [Example 44, N-hydroxy-4-(5-[4-(5-isobutyl-2-methyl-1,3-thiazol-4-yl)phenoxy]pentoxy)-benzamidine]		inhibition at 1 µM [2]: 96.6%
CC(C)c1sc(CN2CCOCC2)nc1-c1ccc(OCCCCCOc2ccc(C(=N)NO)cc2)cc1 [Example 70, N-hydroxy-4-(5-[4-(5-isopropyl-2-morpholinomethyl-1,3-thiazol-4-yl)phenoxy]pentoxy)-benzamidine]	32.7%	
CCc1sc(N(CC)Cc2ccccc2)nc1-c1ccc(OCCCCCOc2ccc(C(=N)NO)cc2)cc1 [Example 135, N-hydroxy-4-(5-[4-(2-(benzyl-ethyl-amino)-5-ethyl-1,3-thiazol-4-yl)phenoxy]pentoxy)-benzamidine]	48.6%	
Cc1nc(-c2ccc(OCCCCCOc3ccc(C(=N)N)cc3)cc2)cs1 [Example 52, 4-(5-[4-(2-methyl-1,3-thiazol-4-yl)phenoxy]pentoxy)-benzamidine]		inhibition at 1 µM [2]: 0%
Cc1nc(-c2ccc(OCCCCCOc3ccc(C(=N)NO)c(NC4CCCCC4)c3)cc2)c(C(C)C)s1 [Example 190, N-hydroxy-2-cyclohexylamino-4-(5-[4-(5-isopropyl-2-methyl-1,3-thiazol-4-yl)-phenoxy]-pentoxy)-benzamidine]	27.3%	
CNc1nc(-c2ccc(OCCCCCOc3ccc(C(=N)NO)cc3)cc2)c(C(C)C)s1 [Example 103, N-hydroxy-4-(5-[4-(5-isopropyl-2-methylamino-1,3-thiazol-4-yl)phenoxy]pentoxy)-benzamidine]	25.4%	
CCCN(CCC)c1nc(-c2ccc(OCCCCCOc3ccc(C(=N)NO)cc3)cc2)c(C(C)C)s1 [Example 157, N-hydroxy-4-(5-[4-(5-isopropyl-2-dipropylamino-1,3-thiazol-4-yl)phenoxy]pentoxy)-benzamidine]	92.3%	
CC(C)c1nc(-c2ccc(OCc3ccc(COc4ccc(C(=N)NO)cc4)cc3)cc2)c(CC2CCCC2)s1 [Example 201, N-hydroxy-4-(4-[4-(5-cyclopentylmethyl-2-isopropyl-thiazol-4-yl)-phenoxymethyl]-benzyloxy)-benzamidine]	85.6%	
C=Cc1sc(C)nc1-c1ccc(OCCCCCOc2ccc(C(=N)NO)cc2)cc1 [Example 74, N-hydroxy-4-(5-[4-(5-vinyl-2-methyl-1,3-thiazol-4-yl)phenoxy]pentoxy)-benzamidine]	92.6%	
Cc1sc(NC(=O)C(C)C)nc1-c1ccc(OCCCCCOc2ccc(C(=N)NO)cc2)cc1 [Example 69, N-hydroxy-4-(5-[4-(2-(isobutyryl)amino-5-methyl-1,3-thiazol-4-yl)phenoxy]pentoxy)-benzamidine]	99.6%	
CC(C)Cc1sc(N(C)CCN2CCOCC2)nc1-c1ccc(OCCCCCOc2ccc(C(=N)NO)cc2)cc1 [Example 154, N-hydroxy-4-(5-[4-(5-isobutyl-2-[methyl-(2-morpholinoethyl)amino]-1,3-thiazol-4-yl)phenoxy]pentoxy)-benzamidine]	9.3%	
CCc1sc(CN)nc1-c1ccc(OCCCCCOc2ccc(C(=N)NO)cc2)cc1 [Example 82, N-hydroxy-4-(5-[4-(5-ethyl-2-aminomethyl-1,3-thiazol-4-yl)phenoxy]pentoxy)-benzamidine]	8.9%	
CCCCCc1nc(-c2ccc(OCCCCCOc3ccc(C(=N)NO)cc3)cc2)c(CCCC)s1 [Example 36, N-hydroxy-4-(5-[4-(5-butyl-2-pentyl-1,3-thiazol-4-yl)phenoxy]pentoxy)-benzamidine]		inhibition at 1 µM: 46.4%
CN(CCN1CCOCC1)c1nc(-c2ccc(OCCCCCOc3ccc(C(=N)NO)cc3)cc2)c(C2CCCC2)s1 [Example 153, N-hydroxy-4-(5-[4-(5-cyclopentyl-2-[methyl-(2-morpholinoethyl)amino]-1,3-thiazol-4-yl)phenoxy]pentoxy)-benzamidine]		inhibition at 1 µM: 96.4%
CC(C)c1nc(-c2ccc(OCCCCCOc3ccc(C(=N)NO)cc3)cc2)c(C(C)C)s1 [Example 25, N-hydroxy-4-(5-[4-(2,5-diisopropyl-1,3-thiazol-4-yl)phenoxy]pentoxy)-benzamidine]		inhibition at 1 µM [2]: 26.5%
CCCCc1sc(N(C)CCO)nc1-c1ccc(OCCCCCOc2ccc(C(=N)NO)cc2)cc1 [Example 143, N-hydroxy-4-(5-[4-(5-butyl-2-((2-hydroxyethyl)-methyl-amino)-1,3-thiazol-4-yl)phenoxy]pentoxy)-benzamidine]	69.5%	
CC(C)c1sc(N(C)CCO)nc1-c1ccc(OCCCCCOc2ccc(C(=N)NO)cc2)cc1 [Example 140, N-hydroxy-4-(5-[4-(2-((2-hydroxyethyl)-methyl-amino)-5-isopropyl-1,3-thiazol-4-yl)phenoxy]pentoxy)-benzamidine]	18.9%	
CCN(Cc1ccccc1)c1nc(-c2ccc(OCCCCCOc3ccc(C(=N)NO)cc3)cc2)c(C)s1 [Example 127, N-hydroxy-4-(5-[4-(2-(benzyl-ethyl-amino)-5-methyl-1,3-thiazol-4-yl)phenoxy]pentoxy)-benzamidine]	41.5%	
COCCN(CCOC)c1nc(-c2ccc(OCCCCCOc3ccc(C(=N)NO)cc3)cc2)c(C)s1 [Example 122, N-hydroxy-4-(5-[4-(2-(bis-(2-methoxyethyl)-amino)-5-methyl-1,3-thiazol-4-yl)phenoxy]pentoxy)-benzamidine]	55.8%	

Reference: patent US8178688B2, “Benzamidine derivatives, process for the preparation thereof and pharmaceutical composition comprising the same” (Dong Wha Pharmaceutical Co., Ltd., priority 2004, dated 2012)
